In patent publication US10144742B2 (Millennium Pharmaceuticals, Inc., priority 2014, dated 2018):
Read-outs that look alike come from different tables or passages of the source.

Key:
PC3 cells = experiment: PC3 growth inhibition (Cell-titer glo, 72 hours); format: cell-based; settings: Homo sapiens, PC-3, PC3 cells, 72 hours, Cell-titer glo, read-out: Percent Inhibition (PC3 growth inhibition); for inhibition at 1.667 µM: compound concentration 1.667 μM; for inhibition at 1 µM: compound concentration 1 μM
In short: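 Compounds in AIM serum-free medium were applied for 72 h at 37 °C, 5% CO2 to PC3 cells plated overnight from RPMI1640 culture. Luminescence after 10 min CellTiter-Glo, normalised to DMSO, gave % viability at 1 μM or 1.667 μM, or GI50/LD50.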

hNAMPT protein = hNAMPT protein (Homo sapiens (Human), UniProt P43490); experiment: NAMPT enzyme assay (TR-FRET/HTRF, BodiPY ligand, anti 6His-Tb); format: binding; settings: for IC50: read-out: IC50; for inhibition at 1 µM: read-out: Percent Inhibition
In short: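 Compound or DMSO was incubated for 1 h at room temperature, protected from light, with BodiPY ligand and hNAMPT labelled by terbium anti-6His antibody. The 520 nm to 486 nm emission ratio after 320 nm excitation gave inhibition versus vehicle, from which concentration-response curves yielded IC50.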

[1] = NAMPT inhibition at compound concentration 1 μM
[2] = NAMPT inhibition, IC50 range class

Chain of hNAMPT protein (P43490 whole entry): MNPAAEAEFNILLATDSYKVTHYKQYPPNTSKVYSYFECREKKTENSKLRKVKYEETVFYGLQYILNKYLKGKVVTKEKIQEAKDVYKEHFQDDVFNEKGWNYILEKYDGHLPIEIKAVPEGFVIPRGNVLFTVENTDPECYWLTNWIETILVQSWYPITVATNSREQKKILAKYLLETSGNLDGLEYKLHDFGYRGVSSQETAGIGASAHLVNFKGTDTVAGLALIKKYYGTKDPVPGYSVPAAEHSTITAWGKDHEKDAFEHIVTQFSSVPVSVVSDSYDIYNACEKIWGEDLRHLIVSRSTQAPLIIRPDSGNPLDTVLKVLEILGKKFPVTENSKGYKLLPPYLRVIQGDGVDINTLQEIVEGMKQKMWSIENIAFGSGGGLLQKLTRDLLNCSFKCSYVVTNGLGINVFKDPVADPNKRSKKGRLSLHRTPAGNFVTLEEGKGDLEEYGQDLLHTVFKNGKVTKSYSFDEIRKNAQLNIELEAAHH

SMILES	inhibition at 1.667 µM (PC3 cells) [%]	IC50 (hNAMPT protein; NAMPT IC50 range class) [µM]	inhibition at 1 µM (hNAMPT protein; compound concentration 1 μM) [%]	inhibition at 1 µM (hNAMPT protein; [1]) [%]	IC50 (hNAMPT protein; [2]) [µM]	inhibition at 1 µM (PC3 cells) [%]	inhibition at 1 µM (hNAMPT protein) [%]
Cc1cncc(-c2nc3cc(C(=O)NCCCc4ncc[nH]4)ccc3nc2-c2ccc(F)cc2)c1 [Compound I-394, 2-(4-fluorophenyl)-N-[3-(1H-imidazol-2-yl)propyl]-3-(5-methylpyridin-3-yl)quinoxaline-6-carboxamide]	3	0.1 to 0.5	74				
C#Cc1cccc(-c2nc3cc(C(=O)NCCCc4ncc[nH]4)ccc3nc2-c2ccc(F)cc2)c1 [Compound I-425, 3-(3-ethynylphenyl)-2-(4-fluorophenyl)-N-[3-(1H-imidazol-2-yl)propyl]quinoxaline-6-carboxamide]	3			87	0.1 to 0.5		
O=C(NCCn1ccnc1)c1ccc2nc(N3CCC(C4CCNCC4)CC3)c(-c3ccccc3)nc2c1 [Compound I-173, 2-(4,4′-bipiperidin-1-yl)-N-[2-(1H-imidazol-1-yl)ethyl]-3-phenylquinoxaline-6-carboxamide]		0.1 to 0.5	83			-1	
Cn1cnc(CCNC(=O)c2ccc3nc(-c4ccc(F)cc4)c(-c4ccc(F)cc4)nc3c2)c1 [Compound I-276, 2,3-bis(4-fluorophenyl)-N-[2-(1-methyl-1H-imidazol-4-yl)ethyl]quinoxaline-6-carboxamide]		1 to 2	38			90	
NC(=O)c1cccc(-c2nc3cc(C(=O)NCCCn4ccnc4)ccc3nc2-c2ccccc2)c1 [Compound I-263, 3-(3-carbamoylphenyl)-N-[3-(1H-imidazol-1-yl)propyl]-2-phenylquinoxaline-6-carboxamide]		0.1 to 0.5	81			1	
O=C(NCCCn1ccnc1)c1ccc2nc(N3CCCCCC3)c(-c3ccccc3)nc2c1 [Compound I-262, 2-(azepan-1-yl)-N-[3-(1H-imidazol-1-yl)propyl]-3-phenylquinoxaline-6-carboxamide]		< 0.1	91			-7	
Cc1nccn1CCCNC(=O)c1ccc2nc(-c3ccc(F)cc3)c(-c3ccc(F)cc3)nc2c1 [Compound I-57, 2,3-bis(4-fluorophenyl)-N-[3-(2-methyl-1H-imidazol-1-yl)propyl]quinoxaline-6-carboxamide]		< 0.1	96			45	
CC(C)(C)OC(=O)N1CCC(C2CCN(c3nc4ccc(C(=O)NCCCn5ccnc5)cc4nc3-c3ccccc3)CC2)CC1 [Compound I-188, tert-butyl 1′-(6-{[3-(1H-imidazol-1-yl)propyl]carbamoyl}-3-phenylquinoxalin-2-yl)-4,4′-bipiperidine-1-carboxylate]		0.1 to 0.5	83			-7	
O=C(NCCCn1ccnc1)c1ccc2nc(N3CCC(N4CCOCC4)C3)c(-c3ccccc3)nc2c1 (stereo not drawn) [Compound I-267, N-[3-(1H-imidazol-1-yl)propyl]-2-[3-(morpholin-4-yl)pyrrolidin-1-yl]-3-phenylquinoxaline-6-carboxamide]		0.1 to 0.5	81			-7	
O=C(NCCCn1ccnc1)c1ccc2nc(N3CCC(N4CCC(O)CC4)CC3)c(-c3ccccc3)nc2c1 [Compound I-210, 2-(4-hydroxy-1,4′-bipiperidin-1′-yl)-N-[3-(1H-imidazol-1-yl)propyl]-3-phenylquinoxaline-6-carboxamide]		< 0.1	95			-2	
O=C(NCCOc1cccnc1)c1ccc2nc(Cl)c(-c3ccc(F)cc3)nc2c1 [Compound I-86, 2-chloro-3-(4-fluorophenyl)-N-[2-(pyridin-3-yloxy)ethyl]quinoxaline-6-carboxamide]	3	< 0.1	62				
CN1CCCCC1COc1nc2ccc(C(=O)NCCCc3ncc[nH]3)cc2nc1-c1ccc(F)cc1 (stereo not drawn) [Compound I-346, 3-(4-fluorophenyl)-N-[3-(1H-imidazol-2-yl)propyl]-2-[(1-methylpiperidin-2-yl)methoxy]quinoxaline-6-carboxamide]	3	< 0.1	98				
O=C(NCc1ccc2[nH]ncc2c1)c1ccc2nc(N3CCCCC3)c(-c3ccc(F)cc3)nc2c1 [Compound I-220, 3-(4-Fluorophenyl)-N-(1H-indazol-5-ylmethyl)-2-(piperidin-1-yl)quinoxaline-6-carboxamide]	4	0.1 to 0.5					68
O=C(NCc1nc2cnccc2[nH]1)c1ccc2nc(-c3ccc(F)cc3)c(-c3ccc(F)cc3)nc2c1 [Compound I-464, 2,3-bis(4-fluorophenyl)-N-(1H-imidazo[4,5-c]pyridin-2-ylmethyl)quinoxaline-6-carboxamide]	0			> 99	< 0.1		
O=C(NCCCc1ncc[nH]1)c1ccc2nc(-c3ccc(F)cc3)c(-c3sccc3Cl)nc2c1 [Compound I-504, 3-(3-chloro-2-thienyl)-2-(4-fluorophenyl)-N-[3-(1H-imidazol-2-yl)propyl]quinoxaline-6-carboxamide]	3			93	< 0.1		
O=C(NCCCc1ncc[nH]1)c1ccc2nc(OCC3CCOCC3)c(-c3ccc(F)cc3)nc2c1 [Compound I-406, 3-(4-fluorophenyl)-N-[3-(1H-imidazol-2-yl)propyl]-2-(tetrahydro-2H-pyran-4-ylmethoxy)quinoxaline-6-carboxamide]	2			> 99	< 0.1		
O=C(NCCCc1ncc[nH]1)c1ccc2nc(-c3ccc(F)cc3)c(-c3cccc(Cl)c3)nc2c1 [Compound I-463, 3-(3-chlorophenyl)-2-(4-fluorophenyl)-N-[3-(1H-imidazol-2-yl)propyl]quinoxaline-6-carboxamide]	3			97	< 0.1		
CCOc1ccc(Cl)c(-c2nc3cc(C(=O)NCCCc4ncc[nH]4)ccc3nc2-c2ccc(F)cc2)c1 [Compound I-437, 3-(2-chloro-5-ethoxyphenyl)-2-(4-fluorophenyl)-N-[3-(1H-imidazol-2-yl)propyl]quinoxaline-6-carboxamide]	3			71	0.1 to 0.5		
CN1CCN(c2nc3ccc(C(=O)NCCCn4ccnc4)cc3nc2-c2ccccc2)CC1=O [Compound I-81, N-[3-(1H-imidazol-1-yl)propyl]-2-(4-methyl-3-oxopiperazin-1-yl)-3-phenylquinoxaline-6-carboxamide]		0.5 to 1	63			-7	
CNC1CC(Oc2nc3ccc(C(=O)NCCCc4ncc[nH]4)cc3nc2-c2ccc(F)cc2)C1 (stereo not drawn) [Compound I-331, 3-(4-fluorophenyl)-N-[3-(1H-imidazol-2-yl)propyl]-2-[3-(methylamino)cyclobutoxy]quinoxaline-6-carboxamide]	2	< 0.1	> 99				
Nc1ccc(CCCNC(=O)c2ccc3nc(N4CCCCC4)c(-c4ccc(F)cc4)nc3c2)cn1 [Compound I-436, N-[3-(6-aminopyridin-3-yl)propyl]-3-(4-fluorophenyl)-2-(piperidin-1-yl)quinoxaline-6-carboxamide]	2			83	0.1 to 0.5		
